Assay results as given in ChEMBL document CHEMBL4622865, “Sulfonamide-based 4-anilinoquinoline derivatives as novel dual Aurora kinase (AURKA/B) inhibitors: Synthesis, biological evaluation and in silico insights” (Bioorg Med Chem, 2020).

What was measured:
Aurora kinase B [1] = target: T1, Aurora kinase B (Homo sapiens, UniProt Q96GD4); test: Inhibition of human Aurora B using [H-LRRASLG] as substrate in presence of [gamma-33P]-ATP incubated for 2 hrs by hotspot kinase assay
PC-3 = test: Antitumor activity against human PC3 cells assessed as growth inhibition at 10-'5 M incubated for 48 hrs by SRB assay relative to control; assay type: functional
NCI/ADR-RES = test: Antitumor activity against human NCI-ADR-RES cells assessed as growth inhibition at 10-'5 M incubated for 48 hrs by SRB assay relative to control; assay type: functional
SR = test: Antitumor activity against human SR cells assessed as growth inhibition at 10-'5 M incubated for 48 hrs by SRB assay relative to control; assay type: functional
SK-OV-3 = test: Antitumor activity against human SKOV3 cells assessed as growth inhibition at 10-'5 M incubated for 48 hrs by SRB assay relative to control; assay type: functional
786-0 = test: Antitumor activity against human 786-O cells assessed as growth inhibition at 10-'5 M incubated for 48 hrs by SRB assay relative to control; assay type: functional
MCF7 = test: Antitumor activity against human MCF7 cells assessed as growth inhibition at 10-'5 M incubated for 48 hrs by SRB assay relative to control; assay type: functional
K562 = test: Antitumor activity against human K562 cells assessed as growth inhibition at 10^-5 M incubated for 48 hrs by SRB assay relative to control; assay type: functional; conditions: K562, 48 h, read-out: GI
KM12 = test: Antitumor activity against human KM12 cells assessed as growth inhibition at 10-'5 M incubated for 48 hrs by SRB assay relative to control; assay type: functional
ACHN = test: Antitumor activity against human ACHN cells assessed as growth inhibition at 10-'5 M incubated for 48 hrs by SRB assay relative to control; assay type: functional
A498 = test: Antitumor activity against human A498 cells assessed as growth inhibition at 10-'5 M incubated for 48 hrs by SRB assay relative to control; assay type: functional
CAKI-1 = test: Antitumor activity against human CAKI-1 cells assessed as growth inhibition at 10-'5 M incubated for 48 hrs by SRB assay relative to control; assay type: functional
[2] = Antitumor activity against human […] cells assessed as growth inhibition at 10-'5 M incubated for 48 hrs by SRB assay relative to control; assay type: functional
Aurora kinase B [3] = target: T1, Aurora kinase B; test: Inhibition of human Aurora B using [H-LRRASLG] as substrate at 20 uM in presence of [gamma-33P]-ATP incubated for 2 hrs by hotspot kinase assay relative to control
SN12C = test: Antitumor activity against human SN12C cells assessed as growth inhibition at 10-'5 M incubated for 48 hrs by SRB assay relative to control; assay type: functional
NCI-H522 = test: Antitumor activity against human NCI-H522 cells assessed as growth inhibition at 10-'5 M incubated for 48 hrs by SRB assay relative to control; assay type: functional
Aurora kinase A = target: T2, Aurora kinase A (Homo sapiens, UniProt O14965); test: Inhibition of human Aurora A using [H-LRRASLG] as substrate in presence of [gamma-33P]-ATP incubated for 2 hrs by hotspot kinase assay
T2 sequence (O14965 whole entry): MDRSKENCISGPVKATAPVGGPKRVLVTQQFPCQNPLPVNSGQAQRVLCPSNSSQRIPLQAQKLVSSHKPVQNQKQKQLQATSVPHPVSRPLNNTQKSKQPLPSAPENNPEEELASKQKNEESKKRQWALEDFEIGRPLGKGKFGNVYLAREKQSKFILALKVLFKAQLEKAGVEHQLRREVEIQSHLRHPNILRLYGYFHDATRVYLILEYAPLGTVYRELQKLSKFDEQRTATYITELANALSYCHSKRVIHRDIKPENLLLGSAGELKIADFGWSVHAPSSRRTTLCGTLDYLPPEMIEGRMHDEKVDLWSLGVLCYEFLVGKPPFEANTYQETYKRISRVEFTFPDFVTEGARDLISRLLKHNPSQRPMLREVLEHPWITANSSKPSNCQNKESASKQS

HCT-15 = test: Antitumor activity against human HCT15 cells assessed as growth inhibition at 10-'5 M incubated for 48 hrs by SRB assay relative to control; assay type: functional
RXF 393 = test: Antitumor activity against human RXF393 cells assessed as growth inhibition at 10-'5 M incubated for 48 hrs by SRB assay relative to control; assay type: functional
T47D = test: Antitumor activity against human T47D cells assessed as growth inhibition at 10-'5 M incubated for 48 hrs by SRB assay relative to control; assay type: functional
SK-MEL-5 = test: Antitumor activity against human SK-MEL-5 cells assessed as growth inhibition at 10-'5 M incubated for 48 hrs by SRB assay relative to control; assay type: functional
UACC-62 = test: Antitumor activity against human UACC62 cells assessed as growth inhibition at 10-'5 M incubated for 48 hrs by SRB assay relative to control; assay type: functional
HOP-92 = test: Antitumor activity against human HOP92 cells assessed as growth inhibition at 10-'5 M incubated for 48 hrs by SRB assay relative to control; assay type: functional
[4] = target: T3, Aurora kinase A (Homo sapiens) (UniProt O14965); test: Inhibition of human Aurora A using [H-LRRASLG] as substrate at 20 uM in presence of [gamma-33P]-ATP incubated for 2 hrs by hotspot kinase assay relative to control
T3 sequence (whole entry): T2 sequence (O14965 whole entry)

UO-31 = test: Antitumor activity against human UO31 cells assessed as growth inhibition at 10-'5 M incubated for 48 hrs by SRB assay relative to control; assay type: functional
HT-29 = test: Antitumor activity against human HT-29 cells assessed as growth inhibition at 10-'5 M incubated for 48 hrs by SRB assay relative to control; assay type: functional
SF-268 = test: Antitumor activity against human SF268 cells assessed as growth inhibition at 10-'5 M incubated for 48 hrs by SRB assay relative to control; assay type: functional
LOX IMVI = test: Antitumor activity against human LOXIMVI cells assessed as growth inhibition at 10-'5 M incubated for 48 hrs by SRB assay relative to control; assay type: functional
SNB-19 = test: Antitumor activity against human SNB19 cells assessed as growth inhibition at 10-'5 M incubated for 48 hrs by SRB assay relative to control; assay type: functional

T1 sequence (Q96GD4 whole entry): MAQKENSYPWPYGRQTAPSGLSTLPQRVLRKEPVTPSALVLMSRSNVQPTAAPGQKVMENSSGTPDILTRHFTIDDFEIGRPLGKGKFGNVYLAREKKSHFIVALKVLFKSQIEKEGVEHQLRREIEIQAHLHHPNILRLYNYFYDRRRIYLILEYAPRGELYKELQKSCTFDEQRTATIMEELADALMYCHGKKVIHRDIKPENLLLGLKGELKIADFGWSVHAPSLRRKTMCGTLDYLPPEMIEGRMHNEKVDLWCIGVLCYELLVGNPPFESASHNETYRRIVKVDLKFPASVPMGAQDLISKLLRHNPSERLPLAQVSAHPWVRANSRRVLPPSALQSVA

SMILES: CCOC(=O)c1cnc2cc(Cl)cc(Cl)c2c1Nc1cccc(S(=O)(=O)NC)c1
- IC50 (Aurora kinase B [1]): 90 nM
- growth inhibition (GI) (PC-3): 30%
- growth inhibition (GI) (NCI/ADR-RES): >=25%
- growth inhibition (GI) (SR): >=25%
- growth inhibition (GI) (SK-OV-3): 31%
- growth inhibition (GI) (786-0): >=25%
- growth inhibition (GI) (MCF7): 30%
- inhibition of growth at 10 µM (K562): 35%
- growth inhibition (GI) (KM12): 64%
- growth inhibition (GI) (ACHN): 39%
- growth inhibition (GI) (A498): 54%
- growth inhibition (GI) (CAKI-1): 41%
- growth inhibition (GI) [2]: 64%
- inhibition (Aurora kinase B [3]): 90.8%
- growth inhibition (GI) (SN12C): >=25%
- growth inhibition (GI) (NCI-H522): 35%
- IC50 (Aurora kinase A): 930 nM
- growth inhibition (GI) (HCT-15): 34%
- growth inhibition (GI) (RXF 393): 33%
- growth inhibition (GI) (T47D): >=25%
- growth inhibition (GI) (SK-MEL-5): 31%
- growth inhibition (GI) (UACC-62): 34%
- growth inhibition (GI) (HOP-92): 53%
- inhibition [4]: 58.6%
- growth inhibition (GI) (UO-31): 50%
- growth inhibition (GI) (HT-29): >=25%
- growth inhibition (GI) (SF-268): >=25%
- growth inhibition (GI) (LOX IMVI): >=25%
- growth inhibition (GI) (SNB-19): >=25%
